Results on 37 molecules are retold here after patent US20140288043A1, “PYRAZOLOPYRIDINE COMPOUNDS” (Genentech, Inc., priority 2013, published 2014).

Structures are written as SMILES. pKi: −log10 of the molar value.

LRRK2, sequence (Q5S007 whole entry G2019S, form open, the tested form may be a part): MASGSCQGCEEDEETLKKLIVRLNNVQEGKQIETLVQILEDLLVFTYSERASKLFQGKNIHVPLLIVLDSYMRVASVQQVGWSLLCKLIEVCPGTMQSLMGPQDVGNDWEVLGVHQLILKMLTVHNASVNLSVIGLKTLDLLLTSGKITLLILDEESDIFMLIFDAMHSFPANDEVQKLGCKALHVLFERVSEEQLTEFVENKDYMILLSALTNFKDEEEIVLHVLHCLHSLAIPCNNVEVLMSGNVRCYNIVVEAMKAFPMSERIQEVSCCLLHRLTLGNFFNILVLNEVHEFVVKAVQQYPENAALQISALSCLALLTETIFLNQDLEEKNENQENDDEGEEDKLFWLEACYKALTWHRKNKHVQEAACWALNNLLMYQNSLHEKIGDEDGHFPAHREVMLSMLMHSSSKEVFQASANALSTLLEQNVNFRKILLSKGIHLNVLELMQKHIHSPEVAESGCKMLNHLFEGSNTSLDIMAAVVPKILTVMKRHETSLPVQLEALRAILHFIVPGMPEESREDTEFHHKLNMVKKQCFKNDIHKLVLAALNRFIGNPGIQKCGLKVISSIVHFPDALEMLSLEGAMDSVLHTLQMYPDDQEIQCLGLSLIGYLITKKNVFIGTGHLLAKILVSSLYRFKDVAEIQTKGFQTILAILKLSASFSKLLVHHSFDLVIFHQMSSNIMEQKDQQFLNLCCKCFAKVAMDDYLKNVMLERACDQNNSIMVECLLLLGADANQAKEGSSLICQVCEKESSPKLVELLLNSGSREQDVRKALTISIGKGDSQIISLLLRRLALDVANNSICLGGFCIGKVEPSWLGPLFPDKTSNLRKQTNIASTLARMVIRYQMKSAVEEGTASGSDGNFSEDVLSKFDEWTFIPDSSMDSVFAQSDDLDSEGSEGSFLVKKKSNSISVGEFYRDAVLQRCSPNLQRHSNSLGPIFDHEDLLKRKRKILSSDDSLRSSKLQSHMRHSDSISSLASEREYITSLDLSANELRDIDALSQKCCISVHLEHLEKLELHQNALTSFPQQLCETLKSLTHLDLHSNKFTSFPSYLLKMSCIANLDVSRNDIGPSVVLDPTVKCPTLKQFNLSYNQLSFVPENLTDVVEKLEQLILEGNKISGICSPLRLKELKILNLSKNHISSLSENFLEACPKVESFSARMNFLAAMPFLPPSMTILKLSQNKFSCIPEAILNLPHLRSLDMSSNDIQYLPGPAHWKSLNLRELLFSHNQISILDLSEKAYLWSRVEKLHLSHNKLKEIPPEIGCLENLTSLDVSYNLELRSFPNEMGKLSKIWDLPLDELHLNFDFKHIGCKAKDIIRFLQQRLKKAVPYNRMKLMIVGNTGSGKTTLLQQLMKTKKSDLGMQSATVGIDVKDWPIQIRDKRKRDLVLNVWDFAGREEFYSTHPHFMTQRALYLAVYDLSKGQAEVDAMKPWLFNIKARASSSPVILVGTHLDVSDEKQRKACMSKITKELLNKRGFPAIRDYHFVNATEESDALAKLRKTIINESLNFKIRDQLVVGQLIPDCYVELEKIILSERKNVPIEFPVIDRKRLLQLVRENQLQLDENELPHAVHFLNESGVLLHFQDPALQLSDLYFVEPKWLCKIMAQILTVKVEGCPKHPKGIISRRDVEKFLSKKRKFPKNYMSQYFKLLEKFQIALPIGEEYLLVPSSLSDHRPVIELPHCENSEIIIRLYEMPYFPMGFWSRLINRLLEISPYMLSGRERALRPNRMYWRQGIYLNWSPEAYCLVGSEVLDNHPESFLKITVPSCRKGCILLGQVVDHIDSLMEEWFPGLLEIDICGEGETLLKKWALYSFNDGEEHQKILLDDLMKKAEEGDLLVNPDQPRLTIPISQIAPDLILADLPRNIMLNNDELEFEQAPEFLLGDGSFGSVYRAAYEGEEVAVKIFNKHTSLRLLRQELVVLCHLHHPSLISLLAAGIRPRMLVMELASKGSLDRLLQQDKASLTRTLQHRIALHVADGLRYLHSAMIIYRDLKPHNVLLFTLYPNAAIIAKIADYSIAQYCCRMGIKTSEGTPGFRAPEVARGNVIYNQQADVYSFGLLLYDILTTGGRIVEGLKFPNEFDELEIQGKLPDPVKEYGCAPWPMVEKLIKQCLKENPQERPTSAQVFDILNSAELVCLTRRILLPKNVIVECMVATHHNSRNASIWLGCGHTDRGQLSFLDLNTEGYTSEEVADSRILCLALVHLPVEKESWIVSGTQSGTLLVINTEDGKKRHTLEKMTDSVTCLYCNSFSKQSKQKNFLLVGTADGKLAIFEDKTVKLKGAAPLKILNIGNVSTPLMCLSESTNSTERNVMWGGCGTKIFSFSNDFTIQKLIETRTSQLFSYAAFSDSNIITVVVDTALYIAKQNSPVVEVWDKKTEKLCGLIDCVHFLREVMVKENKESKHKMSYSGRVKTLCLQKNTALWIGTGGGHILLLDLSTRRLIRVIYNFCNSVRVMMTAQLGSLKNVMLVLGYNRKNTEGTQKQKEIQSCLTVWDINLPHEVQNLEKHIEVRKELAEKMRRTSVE

In this experiment the target is LRRK2 (Homo sapiens, UniProt Q5S007). Description: LRRK2 protein kinase assay ([γ-33P] ATP, peptide substrate), KI values of Table 1. It is filed as biochemical. Conditions: LRRK2 affinity values. From the text:
All LRRK2 protein kinases were of human origin and were sourced from Invitrogen Corporation (Carlsbad, Calif. 92008 USA) unless otherwise indicated. The active mutant used was recombinant human, catalytic domain (amino acids 970-2527) containing a G2019S mutation, GST-tagged, expressed in insect cells (Invitrogen Cat#PV4881). The wild type used was recombinant human, catalytic domain (amino acids 970-2527) GST-tagged, expressed in insect cells (Invitrogen Cat#PV4873). The kinase dead mutant used was recombinant human, catalytic domain (amino acids 970-2527) containing a D1994A mutation, GST-tagged, expressed in insect cells (Invitrogen Cat#PM4041AE). No special measures were taken to activate any of the kinases.
All assays were carried out at room temperature (˜21° C.) and were linear with respect to time and enzyme concentration under the conditions used. Assays were performed for 180 min in a 96 well format. LRRK2 was present at a concentration of approximately 5 nM. The enzyme was diluted and assayed in 50 mM Tris-HCl pH7.5, 0.1 mM EGTA, 1 mM DTT and 10 mM MgCl2. The concentration of magnesium chloride in the assay was 10 mM. The [γ-33P] ATP (0.4 μCi/well) was used at 134 uM for G2019S mutant and at 57 μM for the wild type kinase in order to be at Km. The peptide substrate in the assay was […] at 100 μM.
The assays were initiated with Mg/ATP and stopped by the addition of 25 μl/well 50% orthophosphoric acid. Reactions were harvested onto Whatman P81 Unifilter Plates (Fisher Scientific. Loughborough, LE115RG, UK. Cat# FDU-105-020U) using a Tomtec harvester. (Tomtec Hamden, Conn. 06514. USA) Plates were counted using a Perkin Elmer Top Count NX7. (Perkin Elmer, Shelton Conn. 06484-4794 USA)
IC50 values of inhibitors were determined after carrying out assays at 10 different concentrations of each compound in duplicate.
`CCc1cc(-c2n[nH]c3ccnc(NC4CCOCC4)c23)nn1C` [Compound 1, 3-(5-ethyl-1-methyl-1H-pyrazol-3-yl)-N-(tetrahydro-2H-pyran-4-yl)-1H-pyrazolo[4,3-c]pyridin-4-amine] gave a pKi of 9.30.

For the molecule `CC(C)Nc1nccc2[nH]nc(-c3nccc(N4CCOCC4)n3)c12` [Compound 2, N-isopropyl-3-(4-morpholinopyrimidin-2-yl)-1H-pyrazolo[4,3-c]pyridin-4-amine], the pKi was 7.11.

In turn, `CC(C)Nc1nccc2[nH]nc(-c3cc(N4CCOCC4)ccn3)c12` [Compound 3, N-isopropyl-3-(4-morpholinopyridin-2-yl)-1H-pyrazolo[4,3-c]pyridin-4-amine] had a pKi of 8.80.

In the case of `CC(C)Nc1nccc2[nH]nc(-c3cc(N4CCOCC4)ncn3)c12` [Compound 4, N-isopropyl-3-(6-morpholinopyrimidin-4-yl)-1H-pyrazolo[4,3-c]pyridin-4-amine], the pKi was 8.96.

In turn, `CC(C)n1cc(-c2n[nH]c3ccnc(NC4CCOCC4)c23)nn1` [Compound 5, 3-(1-isopropyl-1H-1,2,3-triazol-4-yl)-N-(tetrahydro-2H-pyran-4-yl)-1H-pyrazolo[4,3-c]pyridin-4-amine] had a pKi of 8.77.

The molecule `CC(C)n1cnc(-c2n[nH]c3ccnc(NC4CCOCC4)c23)c1` [Compound 6, 3-(1-isopropyl-1H-imidazol-4-yl)-N-(tetrahydro-2H-pyran-4-yl)-1H-pyrazolo[4,3-c]pyridin-4-amine] showed a pKi of 8.48.

Consider `CC(C)Nc1nccc2[nH]nc(-c3cn(C(C)C)nn3)c12` [Compound 7, N-isopropyl-3-(1-isopropyl-1H-1,2,3-triazol-4-yl)-1H-pyrazolo[4,3-c]pyridin-4-amine], for which the pKi was 8.36.

In turn, `CC(C)Nc1nccc2[nH]nc(-c3cn(C)nn3)c12` [Compound 8, N-isopropyl-3-(1-methyl-1H-1,2,3-triazol-4-yl)-1H-pyrazolo[4,3-c]pyridin-4-amine] gave a negative-log Ki (pKi) of 8.28.

In turn, `CCNc1nccc2[nH]nc(-c3cn(C(C)C)nn3)c12` [Compound 9, N-ethyl-3-(1-isopropyl-1H-1,2,3-triazol-4-yl)-1H-pyrazolo[4,3-c]pyridin-4-amine] gave a negative logarithm of the Ki (pKi) of 7.88.

Consider `CCNc1nccc2[nH]nc(-c3cn(C)nn3)c12` [Compound 10, N-ethyl-3-(1-methyl-1H-1,2,3-triazol-4-yl)-1H-pyrazolo[4,3-c]pyridin-4-amine], for which the pKi is 7.84.

As for `CCc1cc(-c2n[nH]c3ccnc(NC(C)C)c23)nn1C` [Compound 11, 3-(5-ethyl-1-methyl-1H-pyrazol-3-yl)-N-isopropyl-1H-pyrazolo[4,3-c]pyridin-4-amine], the pKi is 8.46.

Molecule `CCNc1nccc2[nH]nc(-c3cn(C)cn3)c12` [Compound 12, N-ethyl-3-(1-methyl-1H-imidazol-4-yl)-1H-pyrazolo[4,3-c]pyridin-4-amine] showed a pKi of 7.47.

`CC(C)Nc1nccc2[nH]nc(-c3ccccn3)c12` [Compound 13, N-isopropyl-3-(pyridin-2-yl)-1H-pyrazolo[4,3-c]pyridin-4-amine] gave a pKi of 7.96.

Molecule `CCNc1nccc2[nH]nc(-c3cn(CCOC)nn3)c12` [Compound 14, N-ethyl-3-(1-(2-methoxyethyl)-1H-1,2,3-triazol-4-yl)-1H-pyrazolo[4,3-c]pyridin-4-amine] gave a pKi of 7.65.

Molecule `CC(C)Nc1nccc2[nH]nc(-c3ccncn3)c12` [Compound 15, N-isopropyl-3-(pyrimidin-4-yl)-1H-pyrazolo[4,3-c]pyridin-4-amine] gave a pKi of 7.68.

Molecule `CCNc1nccc2[nH]nc(-c3ccccn3)c12` [Compound 16, N-ethyl-3-(pyridin-2-yl)-1H-pyrazolo[4,3-c]pyridin-4-amine] had a pKi of 7.18.

For `c1ccc(-c2n[nH]c3ccnc(NC4CCOCC4)c23)nc1` [Compound 17, 3-(pyridin-2-yl)-N-(tetrahydro-2H-pyran-4-yl)-1H-pyrazolo[4,3-c]pyridin-4-amine], the pKi was 8.51.

The molecule `c1cc(-c2n[nH]c3ccnc(NC4CCOCC4)c23)ncn1` [Compound 18, 3-(pyrimidin-4-yl)-N-(tetrahydro-2H-pyran-4-yl)-1H-pyrazolo[4,3-c]pyridin-4-amine] gave a pKi of 8.22.

In the case of `CCNc1nccc2[nH]nc(-c3ccncn3)c12` [Compound 19, N-ethyl-3-(pyrimidin-4-yl)-1H-pyrazolo[4,3-c]pyridin-4-amine], the pKi was 6.82.

Turning to `CC(C)Nc1nccc2[nH]nc(-c3cc(C(F)(F)F)ccn3)c12` [Compound 20, N-isopropyl-3-(4-(trifluoromethyl)pyridin-2-yl)-1H-pyrazolo[4,3-c]pyridin-4-amine], the pKi is 8.80.

`CCNc1nccc2[nH]nc(-c3cc(C(F)(F)F)ccn3)c12` [Compound 21, N-ethyl-3-(4-(trifluoromethyl)pyridin-2-yl)-1H-pyrazolo[4,3-c]pyridin-4-amine] showed a pKi of 8.03.

`FC(F)(F)c1cc(-c2n[nH]c3ccnc(NC4CCOCC4)c23)ncn1` [Compound 22, N-(tetrahydro-2H-pyran-4-yl)-3-(6-(trifluoromethyl)pyrimidin-4-yl)-1H-pyrazolo[4,3-c]pyridin-4-amine] gave a pKi of 8.54.

`FC(F)(F)c1ccnc(-c2n[nH]c3ccnc(NC4CCOCC4)c23)c1` [Compound 23, N-(tetrahydro-2H-pyran-4-yl)-3-(4-(trifluoromethyl)pyridin-2-yl)-1H-pyrazolo[4,3-c]pyridin-4-amine] gave a pKi of 9.40.

As for `CC(C)Nc1nccc2[nH]nc(-c3cc(C(F)(F)F)ncn3)c12` [Compound 24, N-isopropyl-3-(6-(trifluoromethyl)pyrimidin-4-yl)-1H-pyrazolo[4,3-c]pyridin-4-amine], the pKi was 8.01.

`CCNc1nccc2[nH]nc(-c3cc(C#N)ccn3)c12` [Compound 25, 2-(4-(ethylamino)-1H-pyrazolo[4,3-c]pyridin-3-yl)isonicotinonitrile]: the pKi was 7.85.

`N#Cc1ccnc(-c2n[nH]c3ccnc(NC4CCOCC4)c23)c1` [Compound 26, 2-(4-((tetrahydro-2H-pyran-4-yl)amino)-1H-pyrazolo[4,3-c]pyridin-3-yl)isonicotinonitrile] gave a pKi of 8.42.

`CCNc1nccc2[nH]nc(-c3cc(C(F)(F)F)ncn3)c12` [Compound 27, N-ethyl-3-(6-(trifluoromethyl)pyrimidin-4-yl)-1H-pyrazolo[4,3-c]pyridin-4-amine] showed a pKi of 7.50.

Molecule `Cc1cccc(-c2n[nH]c3ccnc(NC4CCOCC4)c23)n1` [Compound 28, 3-(6-methylpyridin-2-yl)-N-(tetrahydro-2H-pyran-4-yl)-1H-pyrazolo[4,3-c]pyridin-4-amine] showed a pKi of 8.74.

Molecule `Clc1ccnc(-c2n[nH]c3ccnc(NC4CCOCC4)c23)c1` [Compound 29, 3-(4-chloropyridin-2-yl)-N-(tetrahydro-2H-pyran-4-yl)-1H-pyrazolo[4,3-c]pyridin-4-amine] had a negative-log Ki (pKi) of 9.15.

Molecule `CC(C)Nc1nccc2[nH]nc(-c3cc(Cl)ccn3)c12` [Compound 30, 3-(4-chloropyridin-2-yl)-N-isopropyl-1H-pyrazolo[4,3-c]pyridin-4-amine] had a negative-log Ki (pKi) of 8.60.

In the case of `CC(C)Nc1nccc2[nH]nc(-c3cc(C#N)ccn3)c12` [Compound 31, 2-(4-(isopropylamino)-1H-pyrazolo[4,3-c]pyridin-3-yl)isonicotinonitrile], the pKi is 8.64.

Molecule `CC(C)Nc1nccc2[nH]nc(-n3cc(C(F)(F)F)cn3)c12` [Compound 32, N-isopropyl-3-(4-(trifluoromethyl)-1H-pyrazol-1-yl)-1H-pyrazolo[4,3-c]pyridin-4-amine] had a pKi of 8.04.

The molecule `Cc1nccc(-c2n[nH]c3ccnc(NC4CCOCC4)c23)n1` [Compound 33, 3-(2-methylpyrimidin-4-yl)-N-(tetrahydro-2H-pyran-4-yl)-1H-pyrazolo[4,3-c]pyridin-4-amine] gave a pKi of 9.00.

The molecule `FC1(F)CCC(Nc2nccc3[nH]nc(-c4ccccn4)c23)CC1` [Compound 34, N-(4,4-difluorocyclohexyl)-3-(pyridin-2-yl)-1H-pyrazolo[4,3-c]pyridin-4-amine] had a pKi of 8.19.

Molecule `CC(C)Nc1nccc2[nH]nc(-c3cc(-c4cnn(C)c4)ccn3)c12` [Compound 35, N-isopropyl-3-(4-(1-methyl-1H-pyrazol-4-yl)pyridin-2-yl)-1H-pyrazolo[4,3-c]pyridin-4-amine] had a pKi of 9.10.

Take `CC(C)Nc1nccc2[nH]nc(-c3cc(-c4ccnn4C)ccn3)c12` [Compound 36, N-isopropyl-3-(4-(1-methyl-1H-pyrazol-5-yl)pyridin-2-yl)-1H-pyrazolo[4,3-c]pyridin-4-amine]: the negative logarithm of the Ki (pKi) was 8.43.

`CC(C)Nc1nccc2[nH]nc(-c3cc(-c4cccnc4F)ccn3)c12` [Compound 37, 3-(2-fluoro-[3,4′-bipyridin]-2′-yl)-N-isopropyl-1H-pyrazolo[4,3-c]pyridin-4-amine] showed a pKi of 8.51.

As usually defined, the pKi is the negative decadic logarithm of the Ki, by convention in mol/L. Higher therefore signals a low Ki.
